Data: patent publication US5977442A, “Salicylic acid induced map kinase and its use for enhanced disease resistance in plants” (priority 1997, dated 1999)

Columns and labels:
[1] = system: phosphotyrosine-containing 48 kDa protein; assay: Immunoblot analysis with anti-phosphotyrosine antibody 4G10 of treated cell extracts; format: cell-based, Nicotiana tabacum cv Xanthi nc; details: 250 μM SA or 2 mM H2 O2; FIG. 4A
Description: (§1) The cell suspension culture was derived from callus tissue originated from leaves of Nicotiana tabacum cv Xanthi nc and grown in MS medium supplemented with 1 mg/L α-naphthaleneacetic acid, 0.1 mg/L 2,4-dichlorophenoxyacetic acid, 0.1 mg/L benzyladenine, and 3% sucrose. Log phase cells were used three days after a 1:10 dilution. Treatment with H2 O2, SA and its analogues was performed in the original flasks in the dark to avoid any stresses associated with transfer. At various times, 10 mL cells (approximately 0.2 to 0.3 g fresh weight of cells) were harvested by filtration. The cells were quickly frozen in liquid nitrogen and stored at -80° C. until analysis.
(§2) Protein extracts were separated by SDS-PAGE on 10% acrylamide gels, and the proteins were transferred to nitrocellulose membrane by semidry electroblotting. The membrane was blocked for 2 hours in TBS buffer (20 mM Tris, pH 7.5, 150 mM NaCl, 0.1% Tween 20, 0.1 mM Na3 VO4) with 10% BSA at room temperature, and then incubated with the phosphotyrosine-specific monoclonal antibody 4G10 (Upstate Biotechnology Incorporated, NY) in TBS buffer with BSA for 1 hr. After the blot was incubated with horseradish peroxidase-conjugated secondary antibody, the complexes were visualized using an enhanced chemiluminescence kit (DuPont, MA) following the manufacture's instructions.

[2] = system: p48 SIP kinase; assay: In-gel kinase activity assay (MBP substrate) in extracts of treated tobacco suspension cells: activation of p48 SIP kinase; format: cell-based, Nicotiana tabacum cv Xanthi nc
Description: as §1
Leaf discs were first ground to a fine powder in 1.5 ml microcentrifuge tubes using small plastic pestles. After adding 0.25 mL extraction buffer (100 mM Hepes, pH 7.5, 5 mM EDTA, 5 mM EGTA, 10 mM DTT, 10 mM Na3 VO4, 10 mM NaF, 50 mM β-glycerolphosphate, 1 mM phenylmethylsulfonyl fluoride, 5 μg/mL antipain, 5 μg/mL aprotinin, 5 μg/mL leupeptin, 10% glycerol, 7.5% polyvinylpolypyrrolidone), the mixture was sonicated for 15 seconds with a W-375 Sonicator (Heat System-Ultrasonics, Inc., N.Y.) fitted with a microprobe at setting 4 and 80% duty cycle. To prepare extracts from treated cells, cells were mixed with two volumes (w/v) of extraction buffer and were then sonicated twice for 15 seconds each in 1.5 mL microcentrifuge tube. After centrifugation at 13,000 rpm for 20 minutes, supernatants were transferred into clean tubes, quickly frozen in liquid nitrogen and stored at -80° C.
The in-gel kinase assay was performed as described previously (Zhang et al., 1993). Extracts containing 10 μg protein were electrophoresed on 10% SDS-polyacrylamide gels imbedded with either 1 mg/mL of casein, 1 mg/mL histone (Type III-SS, Sigma, MO), 1 mg/mL BSA, or 0.25 mg/mL of MBP in the separating gel as substrate for the kinase. After electrophoresis, SDS was removed by washing the gel with washing buffer (25 mM Tris, pH 7.5, 0.5 mM DTT, 0.1 mM Na3 VO4, 5 mM NaF, 0.5 mg/mL BSA, 0.1% Triton X-100 [v/v]). The buffer was changed three times, each for 30 minutes at room temperature. The kinases were allowed to renature in 25 mM Tris, pH 7.5, 1 mM DTT, 0.1 mM Na3 VO4, 5 mM NaF at 4° C. overnight with three changes of buffer. The gel was then incubated at room temperature in 30 mL reaction buffer (25 mM Tris, pH 7.5, 2 mM EGTA, 12 mM MgCl2, 1 mM DTT, 0.1 mM Na3 VO4) with 200 nM ATP plus 50 μCi γ-^32 P-ATP (3000 Ci/mmole) for 60 minutes. The reaction was stopped by transferring the gel into 5% TCA (w/v)/1% NaPPi (w/v). The unincorporated γ-^32 P-ATP was removed by washing in the same solution for at least 6 hours with 5 changes of buffer. The gel was dried onto 3 MM paper and exposed to Kodak XAR-5 film. Prestained size markers (Bio-Rad, CA) were used to calculate the size of the kinases. Quantitation of the relative kinase activities were done using a phosphoimager (Molecular Dynamics Inc., CA).

[3] = system: 200 kDa and 75 kDa kinase activity bands; details: long exposure of autoradiogram
Description: as §1
The in-gel kinase assay was performed as described previously (Zhang et al., 1993). Extracts containing 10 μg protein were electrophoresed on 10% SDS-polyacrylamide gels imbedded with either 1 mg/mL of casein, 1 mg/mL histone (Type III-SS, Sigma, MO), 1 mg/mL BSA, or 0.25 mg/mL of MBP in the separating gel as substrate for the kinase. After electrophoresis, SDS was removed by washing the gel with washing buffer (25 mM Tris, pH 7.5, 0.5 mM DTT, 0.1 mM Na3 VO4, 5 mM NaF, 0.5 mg/mL BSA, 0.1% Triton X-100 [v/v]). The buffer was changed three times, each for 30 minutes at room temperature. […] Quantitation of the relative kinase activities were done using a phosphoimager (Molecular Dynamics Inc., CA).

[4] = system: 58 kDa, 52 kDa, and 40 kDa kinases; details: 1 mM and 2 mM
Description: as §1
Leaf discs were first ground to a fine powder in 1.5 ml microcentrifuge tubes using small plastic pestles. […]
The in-gel kinase assay was performed as described previously (Zhang et al., 1993). […] Quantitation of the relative kinase activities were done using a phosphoimager (Molecular Dynamics Inc., CA).

[5] = system: tyrosine-phosphorylated proteins; details: in response to H2 O2
Description: as §1, §2

[6] = system: 44 kDa kinase; assay: Activation of 44 kDa kinase in tobacco leaves; format: in vivo, N. tabacum cv Xanthi nc; details: SA treatment of tobacco plants
Description: (§3) Tobacco plants (N. tabacum cv Xanthi nc) were grown at 22° C. in a growth room programmed for a 14-hr light cycle. Plants approximately 7-8 weeks old were used for experiments. For temperature-shift experiments, plants were transferred to a 32° C. chamber one day before inoculation. TMV strain U1 was used at a concentration of 1 μg/mL in 50 mM phosphate buffer, pH 7.0; mock inoculation was done with buffer only. After 48 hours infected plants were shifted back to 22° C. and leaf discs (1 cm in diameter) were taken at the indicated times. For water or SA treatment, one leaf from each plant was injected with solution using a syringe until the entire leaf was infiltrated.

[7] = system: p48 SIP kinase; assay: Activation of p48 SIP kinase in tobacco leaves after injection; format: in vivo, N. tabacum cv Xanthi nc
Description: as §3

[8] = system: the two major H2 O2 -scavenging enzymes; details: Chen et al., 1993; Durner and Klessig, 1995; cited from earlier work
[9] = system: kinase activities in extracts from SA-treated cells (casein, histone, or BSA as substrate); assay: In-gel kinase activity assay with casein, histone or BSA as substrate in extracts of treated tobacco suspension cells; format: cell-based, Nicotiana tabacum cv Xanthi nc
[10] = system: TMV; details: Dunigan et al., 1995; cited from earlier work
[11] = system: PR-1 gene expression; details: Conrath et al., 1997; cited from earlier work
[12] = system: p48 SIP kinase; assay: Treatment of p48 SIP kinase with phosphatases; format: biochemical, tobacco; details: okadaic acid against PP1; Na3 VO4 against YOP
Description: FIG. 13 is a histogram showing inactivation of p48 SIP kinase by phosphatase treatment. Approximately 20 units of the SIP kinase was treated with either the serine/threonine-specific phosphatase PPI (0.1 units) or the tyrosine-specific protein phosphatase YOP (0.5 units) for 10 min (bars 2 to 5) or 30 min (bars 7 to 10) at 30° C. in the presence or absence of a phosphatase inhibitor. Bars 1 and 6 represent the control without phosphatase or phosphatase inhibitor; bars 2 and 7, PPI; bars 3 and 8, PPI plus okadaic acid (1 μM); bars 4 and 9, YOP; bars 5 and 10, YOP plus Na3 VO4 (1 mM). Before assaying for SIP kinase activity, the phosphatase inhibitors were added to all of the reactions to the same final concentrations.
The phosphatase inhibitors present in the purified p48 SIP kinase preparation were first removed by dialysis against buffer B lacking β-glycerophosphate and Na3 VO4 in a 0.5-mL 10 K dialysis cassette (Slide-A-Lyzer; Pierce). For treatment with serine/threonine protein phosphatase PP1 (Calbiochem, San Diego, Calif.), MnCl2, DTT, and BSA were added to aliquots of the SIP kinase preparation to final concentrations of 200 μm, 5 mM and 100 μg/mL respectively. Then 0.1 unit of PP1 was added, and the reaction mixture was incubated at 30° C. in the presence or absence of 1 μM of the phosphatase inhibitor okadaic acid (Calbiochem). […]

[13] = system: p48 SIP kinase (precipitation by 4G10 antibody); assay: Immunoprecipitation-kinase activity assay with 4G10 antibody and phospho-amino acid competitors; format: binding, Nicotiana tabacum cv Xanthi nc; details: 1 mM competitor
Description: About 25 μL packed volume of protein A-agarose was added, and the incubation was continued for another 2 hours. Agarose bead-protein complexes were pelleted by brief centrifugation. After washing with immunoprecipitation buffer three times, 1× SDS sample buffer was added and the sample boiled for 3 minutes. After centrifugation, the supernatant fraction was electrophoresed on 10% SDS-PAGE gel, and the in-gel kinase assay was performed.

[14] = molecular target: myelin basic protein (MBP)

OO [H2 O2, hydrogen peroxide]
tyrosine phosphorylation of 48 kDa protein [1]: prolonged phosphorylation of tyrosine residue(s) on a 48 kDa protein
activation of p48 SIP kinase by H2O2 ([2]; 1 mM and 2 mM): induced several kinase activities including the p48 SIP kinase
kinase activity at 60 minutes after addition ([2]; 60 minutes after addition of H2 O2): remained at peak levels
duration of SIP kinase activation relative to SA ([2]; tobacco suspension cells, data not shown for analogues): more sustained compared to that induced by SA
weakly induced kinase activity bands at 200 kDa and 75 kDa [3]: weakly induced
activation of other kinases (58, 52, 40 kDa) [4]: induced several kinase activities
number of proteins phosphorylated on tyrosine residues [5]: at least four

O=C(O)c1ccccc1O [SA, salicylic acid]
tyrosine phosphorylation of 48 kDa protein [1]: transient increase in the level of a phosphotyrosine-containing 48 kDa protein
time to peak of p48 SIP kinase activation ([2]; 250 μM SA, tobacco suspension cells): ≤ 5 min
activation of 48 kDa (p48 SIP) kinase ([2]; 250 μM, tobacco suspension cells, MBP substrate): activated a 48 kDa kinase
reactivation of SIP kinase by second addition of SA ([2]; second addition up to 4 hr after initial treatment): did not reactivate the SIP kinase
minimum concentration of SA required to activate p48 kinase ([2]; tobacco suspension cells): 100 µM
concentration at which maximum p48 kinase activity obtained ([2]; tobacco suspension cells, FIG. 1E): 500 µM
activation of p44 kinase [6]: also evident after SA treatment of tobacco plants
activation of p48 SIP kinase by second injection ([7]; leaves first injected with water, then SA): dramatic activation of the p48 SIP kinase
activation of kinase in leaves, first (rapid) peak: return to basal level ([7]; single injection 500 μM SA): about 30 minutes
time of second, more prolonged peak of kinase activation ([7]; single injection 500 μM SA): approximately 3 hours
inhibition of the two major H2O2-scavenging enzymes [8]: can inhibit the two major H2 O2 -scavenging enzymes
increase in kinase activities with casein, histone, or BSA as substrate [9]: no increases in kinase activities were detected

C=C1[C@@H](O)[C@@H]2O[C@]3(CC[C@H](/C=C/[C@@H](C)[C@@H]4CC(C)=C[C@@]5(O[C@H](C[C@@](C)(O)C(=O)O)CC[C@H]5O)O4)O3)CC[C@H]2O[C@@H]1[C@@H](O)C[C@H](C)[C@H]1O[C@@]2(CCCCO2)CC[C@H]1C [okadaic acid]
inhibition of lesion formation after TMV infection [10]: lesion formation after TMV infection was inhibited
blocking of SA-mediated induction of PR-1 gene expression [11]: blocked the SA-mediated induction of PR-1 gene expression
prevention of phosphatase inactivation of SIP kinase [12]: could be prevented

N[C@@H](Cc1ccc(OP(=O)(O)O)cc1)C(=O)O [phosphotyrosine]
inhibition of precipitation of p48 SIP kinase [13]: inhibited precipitation of the p48 SIP kinase

p48 SIP kinase (salicylic acid-induced protein kinase), activated form from SA- or H2O2-treated tobacco cells, in extracts or purified (enzyme)
phosphorylation of MBP, in-solution kinase assay (Km for MBP) [14]: 0.19 mg/mL
